Experimental data from patent US20070054940A1, “Remedy for down's syndrome” (EISAI CO., LTD., priority 2003, published 2007).
Counter-ions that a name gives are not always drawn.

Tests used:
[1] = tested on: Down's syndrome; details: in vivo; cited from earlier work
[2] = Blood concentration in the patient with rapid retrogression; details: human, in vivo; 2 mg/day oral, house visit after 2 months
Description: It was confirmed that the subject was spontaneously getting up in the morning with extreme regularity. In addition, in daily activities the patient was sorting laundry, and before administration could not fold one piece in 30 minutes, but after administration could process 10 to 20 pieces in 10 minutes, and was approaching the level prior to the symptoms of rapid retrogression. Furthermore, the patient was able to spontaneously take medicine without the instruction of a parent. […] The blood concentration was 13.7 ng/mL.

[3] = tested on: Down's syndrome model mouse; details: cited from earlier work
[4] = tested on: human children with Down's syndrome; details: 25 human children with Down's syndrome; cited from earlier work

N[C@@H](Cc1c[nH]c2ccc(O)cc12)C(=O)O [5-hydroxytryptophan]
Development of motor skills, language skills, intelligence, or socialization [1]: no efficacy was seen

COc1cc2c(cc1OC)C(=O)C(CC1CCN(Cc3ccccc3)CC1)C2 (stereo not shown) [donepezil hydrochloride]
concentration at 2 months [2]: 13.7 ng/mL

NC(=O)CN1CCCC1=O [piracetam]
Cognitive function [3]: an effect in improving cognitive function was seen
Cognitive function [4]: no improvement in cognitive function was seen
